# Laboratory results taken from patent publication US20250327794A1, “FLUOROMETRIC METHODS FOR DETECTION OF ALLERGIC SENSITIVITY TO ENVIRONMENTAL, FOODSTUFF, AND MEDICAMENT STIMULANTS” (CELL SCIENCE SYSTEMS CORPORATION, priority 2022, published 2025).
# Columns and labels:
# [1] = tested on: basophils; assay: Basophil activation: RH 123 signal in CD123(+)/CD16(-) gated cells; assay type: cell-based, human
# Source text: Activation of basophils from human blood samples following exposure to exogenous stimulants was investigated using flow cytometry analysis of RH 123 fluorescence, as well as cell surface markers CD16 and CD193, and side scattering profiles. CD123 is a cell surface marker that is expressed on basophils and eosinophils. FIGS. 25A-25C show density plots of CD123 signals at channel 4 (FL4-A) for DHR 123 only (FIG. 25A), DHR 123+PMA stimulant (FIG. 25B), and DHR 123+DM stimulant exposed group (FIG. 25C) following exposure to stimulant for 1.5 hours. FIGS. 25D-25F show corresponding gated RH 123 results (MFI=2055, MFI=6388, and MFI=3023, respectively). FIGS. 26A-26C show density plots of CD123 signals at channel 4 (FL4-A) for DHR 123 control group (FIG. 26A), DHR 123 and dust mite stimulant-exposed group (FIG. 26B), and DHR 123 and ragweed pollen stimulant-exposed group (FIG. 26C) following exposure to stimulant for 2.5 hours. FIGS. 26D-26F show corresponding gated RH 123 results (MFI=1800, MFI=3299, and MFI=1270, respectively).
# Basophil population was selected by having CD123(+)/CD16(−) expression profiles, along with lower side scattering (shown in FIGS. 25A-25C and FIGS. 26A-26C as encircled). In contrast to reducing eosinophil population for different allergen treated groups, basophil population appeared stable over the experiment time period (1.5 hours and 2.5 hours).
# [2] = tested on: granulocytes; assay: Citrullinated histone H3 flow cytometry blood test (extracellular trap formation); assay type: cell-based, human
# Source text: Detection of extracellular traps formation was incorporated to improve flow cytometry analysis of granulocyte subpopulations. […] This example describes detection of granulocyte activation following exposure of human blood to exogenous stimulant, using dihydrorhodamine 123, propidium iodide, and citrullinated histone H3 staining.
# Peripheral blood samples were collected, diluted, maintained, treated, lysed, and fixed as previously described. Samples were blocked as previously described and incubated with staining buffer containing a 1:400 dilution of Cit-H3 antibody (Cayman Chemical, Michigan, USA) for 30 min at RT. Following two wash steps, the samples were incubated with APC-conjugated secondary (1:200) (Columbia Biosciences, Maryland, USA) for 30 min and subsequent washing steps were performed to remove unbound antibodies. Cells were washed twice and resuspended in PBS prior to analysis using a BD Accuri C6 Flow Cytometer (BD Biosciences). Statistical analysis was performed using the FlowJo v10 (FlowJo). NETs were defined by the in-tandem use of the classis extracellular DNA/viability marker PI(+) and the extracellular trap marker Cit-H3(+). NET formation was quantified as a fold-change relative to the mean of the negative control samples.
smiles,measurement,setting,value
"CCCCCCCCCCCCCC(=O)O[C@@H]1[C@@H](C)[C@@]2(O)[C@@H](C=C(CO)C[C@]3(O)C(=O)C(C)=C[C@@H]23)[C@@H]2C(C)(C)[C@]12OC(C)=O [PMA, Phorbol-12-Myristate-13-Acetate]",CD123 signal over incubation time,"[1]; 1-3 hr incubation, DHR 123 and PMA",decreased
same,"gated RH 123 signal MFI, CD123 gated","[1]; 1.5 hours exposure, DHR 123 only control MFI=2055",6388
same,basophil activation (in words),[1]; RH 123 signal vs DHR 123 only control,induced the activation of basophils
same,RH 123 (FL1-A) and PI (FL3-A) fluorescence signal compared with cell-only group,[2],higher
same,percentage cells positive for citrullinated histone H3 signals,[2]; after gating on FL3-A and FL4-A,high
same,"PI staining signal (channel 3, FL3-A)","[2]; repeat, 8 μL stimulant/100 μL blood",stronger signals
